# Experimental data from PMC8569681, “New Pyrimidine and Pyridine Derivatives as Multitarget Cholinesterase Inhibitors: Design, Synthesis, and In Vitro and In Cellulo Evaluation” (ACS Chemical Neuroscience, 2021).
# Biological target: T1, equine BChE (eqBChE) (Equus caballus, UniProt P81908)
# T1 construct: purchased Sigma-Aldrich (Milan, Italy)
# Assay: Percent inhibition of eqBChE, Ellman's spectrophotometric method
# Assay type: biochemical
# Settings: 900 nM; supplement csv
# Description: On the synthesized compounds, enzymatic inhibition studies were carried out toward Electrophorus electricus AChE (EeAChE) and equine BChE (eqBChE) according to Ellman’s spectrophotometric method.[25]
# (§1) All other chemical and biological reagents and solvents used were of the highest analytical, commercially available grade. The water, utilized for the preparation of the phosphate buffer and of the compound solutions, was distilled and filtered on nylon membrane filters with a 0.2 μm pore size with the Millipore Filtration apparatus before each use. Micropipettes Labmate (BRAND Dig. 10–100 μL; Dig. 100–1000 μL; Dig. 0.1–2 μL) and Transferpette (HIGH TECH LAB LM200: 20–200 μL; LM5000: 1000–5000 μL) were used to collect the samples. The assays were carried out by a double beam UV–vis Lambda 40 Perkin Elmer spectrophotometer using optical polystyrene cuvettes (10 × 10 × 45 mm, 340–800 nm optical transparency); each measure was repeated at least in triplicate. […] The spectrophotometric method of Ellman[25] with minor modifications was used to evaluate the inhibition of ChEs. […] EeAChE and eqBChE were periodically tested to evaluate the effective enzymatic activity.
# (§2) For all the synthesized compounds, the percentages of inhibition toward AChE of Electrophorus electricus (EeAChE) and equine BChE (eqBChE) were evaluated.
# (§3) Three milliliters of a solution in 0.1 M phosphate buffer (pH = 7.4) containing DTNB (0.25 mM) and EeAChE (0.083 UmL^–1) or eqBChE (0.083 UmL^–1) was placed in a polystyrene cuvette of 1.0 cm path length; 1 μL of a solution in DMSO of the tested compound was added to obtain a cuvette concentration range of 9–0.09 μM. With this solution, the blank was made. […] Each experiment was repeated at least in triplicate.
# T1 sequence (P81908 whole entry): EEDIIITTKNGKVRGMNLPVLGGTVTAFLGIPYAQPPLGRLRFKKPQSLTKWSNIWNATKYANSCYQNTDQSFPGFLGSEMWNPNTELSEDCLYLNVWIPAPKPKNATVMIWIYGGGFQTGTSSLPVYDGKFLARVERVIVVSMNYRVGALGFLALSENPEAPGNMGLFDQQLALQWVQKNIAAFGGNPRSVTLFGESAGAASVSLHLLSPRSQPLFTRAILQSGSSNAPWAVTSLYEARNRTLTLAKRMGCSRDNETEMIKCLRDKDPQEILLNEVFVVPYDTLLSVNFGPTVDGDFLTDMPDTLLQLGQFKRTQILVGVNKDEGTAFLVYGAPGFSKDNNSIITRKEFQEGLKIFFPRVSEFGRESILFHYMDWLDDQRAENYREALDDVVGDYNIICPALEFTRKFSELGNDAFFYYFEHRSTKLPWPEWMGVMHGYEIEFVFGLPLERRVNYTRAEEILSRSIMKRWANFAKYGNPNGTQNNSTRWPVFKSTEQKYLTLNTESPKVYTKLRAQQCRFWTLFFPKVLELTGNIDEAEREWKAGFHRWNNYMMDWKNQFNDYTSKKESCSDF
row,SMILES,% inhibition vs eqBChE ± SD (900 uM) [%]
1,"COc1cc(CNCCCCCCNc2ccccn2)ccc1O [Compound 30, 2-Methoxy-4-(((6-(pyridin-2-ylamino)hexyl)amino)methyl)phenol]",15.6 ± 6.1

# Same assay, conditions: [I] 90 nM; 0.0833 U/mL enzyme, 100 μM acetylthiocholine; read-out: % inhibition vs eqBChE ± SD
row,SMILES,inhibition at 0.09 µM [%]
1,"COc1cc(CNCCCCCCNc2ccccn2)ccc1O [Compound 30, 2-Methoxy-4-(((6-(pyridin-2-ylamino)hexyl)amino)methyl)phenol]",15.6 ± 6.1

# Same assay, conditions: [I] 900 nM; 0.0833 U/mL enzyme, 100 μM acetylthiocholine; read-out: % inhibition vs eqBChE ± SD
row,SMILES,inhibition at 0.9 µM [%]
1,"c1ccc(CNCCCCCNc2ccccn2)cc1 [Compound 23, N^1-Benzyl-N^5-(pyridin-2-yl)pentane-1,5-diamine]",5 ± 5.8
2,"c1ccc(CNCCCCCCNc2ccccn2)cc1 [Compound 25, N^1-Benzyl-N^6-(pyridin-2-yl)hexane-1,6-diamine]",16.6 ± 6.3
3,"COc1cc(CNCCCCCCNc2ccccn2)ccc1O [Compound 30, 2-Methoxy-4-(((6-(pyridin-2-ylamino)hexyl)amino)methyl)phenol]",51

# Same assay, conditions: [I] 9 μM; 0.0833 U/mL enzyme, 100 μM acetylthiocholine; read-out: % inhibition vs eqBChE ± SD
row,SMILES,inhibition at 9 µM [%]
1,"c1ccc(CNCCCCCNc2ccccn2)cc1 [Compound 23, N^1-Benzyl-N^5-(pyridin-2-yl)pentane-1,5-diamine]",56.5 ± 3
2,"c1ccc(CNCCCCCCNc2ccccn2)cc1 [Compound 25, N^1-Benzyl-N^6-(pyridin-2-yl)hexane-1,6-diamine]",71.6 ± 2.1
3,"COc1cc(CNCCCCCCNc2ccccn2)ccc1O [Compound 30, 2-Methoxy-4-(((6-(pyridin-2-ylamino)hexyl)amino)methyl)phenol]",91

# Same assay, conditions: read-out: % inhibition vs eqBChE ± SD (9 uM), 9 uM; supplement csv
row,SMILES,inhibition at 9 µM [%]
1,"c1ccc(CNCCCCCNc2ccccn2)cc1 [Compound 23, N^1-Benzyl-N^5-(pyridin-2-yl)pentane-1,5-diamine]",5 ± 5.8
2,"c1ccc(CNCCCCCCNc2ccccn2)cc1 [Compound 25, N^1-Benzyl-N^6-(pyridin-2-yl)hexane-1,6-diamine]",16.6 ± 6.3
3,"COc1cc(CNCCCCCCNc2ccccn2)ccc1O [Compound 30, 2-Methoxy-4-(((6-(pyridin-2-ylamino)hexyl)amino)methyl)phenol]",51.2 ± 3.1

# Biological target: T2, Aβ42 peptide (Homo sapiens, UniProt P05067)
# T2 construct: expressed in transfected cells; host or cells: E. coli BL21 (DE3), pET28a
# Assay: Inhibition of Aβ42 aggregation in intact E. coli cells, thioflavin-S
# Assay type: cell-based, Escherichia coli
# Settings: [I] = 100 μM
# Description: The anti-aggregating effect of the tested compounds was monitored by a cell-based assay in intact Escherichia coli cells that overexpress either the Aβ42 peptide or tau protein, which upon overexpression form insoluble inclusion bodies that were stained with thioflavin-S, an amyloid specific dye.[36] The percentages of inhibition toward Aβ42 and tau aggregation were determined at an inhibitor concentration of 100 μM, and the obtained results are reported in Table 7.
# E. coli competent cells BL21 (DE3) were transformed with the pET28a vector (Novagen, Inc., Madison, WI, USA) carrying the DNA sequence of Aβ42. Because of the addition of the initiation codon ATG in front of both genes, the overexpressed peptide contains an additional methionine residue at its N terminus. For overnight culture preparation, an amount of 10 mL of the M9 minimal medium containing 50 μg·mL^–1 of kanamycin was inoculated with a colony of BL21 (DE3) bearing the plasmid to be expressed at 37 °C. For expression of the Aβ42 peptide, the required volume of overnight culture to obtain 1:500 dilution was added into the fresh M9 minimal medium containing 50 μg·mL^–1 of kanamycin and 250 μM Th-S. The bacterial culture was grown at 37 °C and 250 rpm. When the cell density reached OD600 = 0.6, an amount of 980 μL of culture was transferred into Eppendorf tubes of 1.5 mL with 10 μL of each compound to be tested in DMSO and 10 μL of isopropyl 1-thio-β-D-galactopyranoside (IPTG) at 100 mM. The final concentration of the drug was fixed at 100 μM. The samples were grown overnight at 37 °C and 1400 rpm using a ThermoMixer (Eppendorf, Hamburg, Germany). As negative control (maximal amyloid presence), the same amount of DMSO without the drug was added in the sample. In parallel, non-induced samples (in the absence of IPTG) were also prepared and used as positive controls (non-amyloid presence). In addition, these samples were used to assess the potential intrinsic toxicity of the compounds and to confirm the correct bacterial growth.
# Th-S (T1892) and other chemical reagents were purchased from Sigma (St. Louis, MO). The Th-S stock solution ([…]) was prepared in double-distilled water purified through a Milli-Q system (Millipore, USA). Th-S fluorescence and absorbance were tracked using a DTX 800 plate reader Multimode Detector equipped with a Multimode Analysis Software (Beckman-Coulter, USA). Filters of 430/35 and 485/20 nm were used for the excitation and emission wavelengths, respectively. Filters of 535/25 nm were also used for the absorbance determination. To normalize the Th-S fluorescence as a function of the bacterial concentration, OD600 was obtained using a Shimadzu UV-2401 PC UV–vis spectrophotometer (Shimadzu, Japan). Note that the fluorescence normalization was carried out considering as 100% the Th-S fluorescence of the bacterial cells expressing the peptide or protein in the absence of drug and 0% the Th-S fluorescence of the bacterial cells not expressing the peptide or protein. A minimum of five independent assays (with three replicates for assay) was performed for each tested compound. More assays were performed to obtain a SEM < 5% with a maximum of 10 independent assays.
# T2 sequence (P05067 672-713 limits assumed): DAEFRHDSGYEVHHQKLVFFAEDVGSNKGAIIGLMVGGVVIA
row,SMILES,inhibition at 100 µM [%]
1,"c1ccc(CNCCCCCNc2ccccn2)cc1 [Compound 23, N^1-Benzyl-N^5-(pyridin-2-yl)pentane-1,5-diamine]",10.4
2,"c1ccc(CNCCCCCCNc2ccccn2)cc1 [Compound 25, N^1-Benzyl-N^6-(pyridin-2-yl)hexane-1,6-diamine]",16.8
3,"COc1cc(CNCCCCCCNc2ccccn2)ccc1O [Compound 30, 2-Methoxy-4-(((6-(pyridin-2-ylamino)hexyl)amino)methyl)phenol]",13.6

# Biological target: T3, Electrophorus electricus AChE (EeAChE) (Electrophorus electricus, UniProt O42275)
# T3 construct: purchased Sigma-Aldrich (Milan, Italy)
# Assay: Percent inhibition of EeAChE, Ellman's spectrophotometric method
# Assay type: biochemical
# Settings: read-out: % inhibition vs EeAChE ± SD (9 uM), 9 uM; supplement csv
# Description: as §1, §2
# as §3, with “solution in DMSO of the tested compound was added to obtain a cuvette concentration range of 9–0.09 μM.” left out
# T3 sequence (O42275 24-633): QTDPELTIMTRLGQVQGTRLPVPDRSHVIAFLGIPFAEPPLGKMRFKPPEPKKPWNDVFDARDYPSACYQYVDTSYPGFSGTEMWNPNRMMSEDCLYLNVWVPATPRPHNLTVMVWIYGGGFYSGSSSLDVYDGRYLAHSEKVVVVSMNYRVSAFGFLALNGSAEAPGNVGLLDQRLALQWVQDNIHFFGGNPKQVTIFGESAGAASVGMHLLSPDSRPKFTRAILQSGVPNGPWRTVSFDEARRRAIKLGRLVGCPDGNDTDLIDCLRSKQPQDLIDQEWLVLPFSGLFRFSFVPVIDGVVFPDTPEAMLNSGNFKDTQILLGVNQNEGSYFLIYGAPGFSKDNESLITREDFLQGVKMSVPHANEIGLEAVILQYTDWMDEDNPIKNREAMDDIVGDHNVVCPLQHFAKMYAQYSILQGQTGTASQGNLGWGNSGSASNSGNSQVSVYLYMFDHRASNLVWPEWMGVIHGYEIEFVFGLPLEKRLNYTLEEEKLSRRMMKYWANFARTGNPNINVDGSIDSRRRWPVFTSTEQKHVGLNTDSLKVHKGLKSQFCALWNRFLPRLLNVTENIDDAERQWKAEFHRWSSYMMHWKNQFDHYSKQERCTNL
row,SMILES,inhibition at 9 µM [%]
1,"c1ccc(CNCCCCCNc2ccccn2)cc1 [Compound 23, N^1-Benzyl-N^5-(pyridin-2-yl)pentane-1,5-diamine]",53.5 ± 1.4
2,"c1ccc(CNCCCCCCNc2ccccn2)cc1 [Compound 25, N^1-Benzyl-N^6-(pyridin-2-yl)hexane-1,6-diamine]",73.3 ± 0.1
3,"COc1cc(CNCCCCCCNc2ccccn2)ccc1O [Compound 30, 2-Methoxy-4-(((6-(pyridin-2-ylamino)hexyl)amino)methyl)phenol]",61.8 ± 1.9

# Same assay, conditions: read-out: % inhibition vs EeAChE ± SD (90 uM), 90 uM; supplement csv
row,SMILES,inhibition at 90 µM [%]
1,"c1ccc(CNCCCCCNc2ccccn2)cc1 [Compound 23, N^1-Benzyl-N^5-(pyridin-2-yl)pentane-1,5-diamine]",56.5 ± 3
2,"c1ccc(CNCCCCCCNc2ccccn2)cc1 [Compound 25, N^1-Benzyl-N^6-(pyridin-2-yl)hexane-1,6-diamine]",71.6 ± 2.1
3,"COc1cc(CNCCCCCCNc2ccccn2)ccc1O [Compound 30, 2-Methoxy-4-(((6-(pyridin-2-ylamino)hexyl)amino)methyl)phenol]",90.9 ± 0.6

# Same assay, conditions: read-out: % inhibition vs EeAChE ± SD (900 uM), 900 uM; supplement csv
row,SMILES,inhibition at 900 µM [%]
1,"c1ccc(CNCCCCCNc2ccccn2)cc1 [Compound 23, N^1-Benzyl-N^5-(pyridin-2-yl)pentane-1,5-diamine]",10.3 ± 0.8
2,"c1ccc(CNCCCCCCNc2ccccn2)cc1 [Compound 25, N^1-Benzyl-N^6-(pyridin-2-yl)hexane-1,6-diamine]",23.1 ± 5.7
3,"COc1cc(CNCCCCCCNc2ccccn2)ccc1O [Compound 30, 2-Methoxy-4-(((6-(pyridin-2-ylamino)hexyl)amino)methyl)phenol]",17.3 ± 0.6

# Same assay, conditions: read-out: % inhibition vs EeAChE ± SD, [I] 900 nM; 0.0833 U/mL enzyme, 100 μM acetylthiocholine
row,SMILES,inhibition at 0.9 µM [%]
1,"c1ccc(CNCCCCCNc2ccccn2)cc1 [Compound 23, N^1-Benzyl-N^5-(pyridin-2-yl)pentane-1,5-diamine]",10.3 ± 0.8
2,"c1ccc(CNCCCCCCNc2ccccn2)cc1 [Compound 25, N^1-Benzyl-N^6-(pyridin-2-yl)hexane-1,6-diamine]",23.1 ± 5.7
3,"COc1cc(CNCCCCCCNc2ccccn2)ccc1O [Compound 30, 2-Methoxy-4-(((6-(pyridin-2-ylamino)hexyl)amino)methyl)phenol]",17.3 ± 0.6

# Same assay, conditions: read-out: % inhibition vs EeAChE ± SD, [I] 9 μM; 0.0833 U/mL enzyme, 100 μM acetylthiocholine
row,SMILES,inhibition at 9 µM [%]
1,"c1ccc(CNCCCCCNc2ccccn2)cc1 [Compound 23, N^1-Benzyl-N^5-(pyridin-2-yl)pentane-1,5-diamine]",53.5 ± 1.4
2,"c1ccc(CNCCCCCCNc2ccccn2)cc1 [Compound 25, N^1-Benzyl-N^6-(pyridin-2-yl)hexane-1,6-diamine]",73
3,"COc1cc(CNCCCCCCNc2ccccn2)ccc1O [Compound 30, 2-Methoxy-4-(((6-(pyridin-2-ylamino)hexyl)amino)methyl)phenol]",~60
